# Measurements taken from patent publication US20080014211A1, “Methods to elicit, enhance and sustain immune responses against MHC class I-restricted epitopes, for prophylactic and therapeutic purposes” (priority 2006, published 2008).
# Experiments:
# [1] = system: CD4+CD25+Fox P3+ T-regulatory cells; conditions: tumor bearing mice, one injection 100 mg/kg on Day 46, spleens day 49; p=0.02
# Procedure: Control mice received either poyIC or saline.
# Mice received one injection of cyclophosphamide (CTX, 100 mg/kg) on days 46 […]. On day 49, spleens were removed from 3 mice in each group and the percentage of CD25^+ and Fox P3^+ cells were calculated within the total CD4^+ population (FIG. 6).
# [2] = system: HPV-16 transformed tumor cells; assay: Adjunctive therapy in late stage cancer, tumor progression (Example 10); format: in vivo, C57BL/6 mice; conditions: CTX 30 mg/kg Day 14, 18, immunization Day 20, 24, 34, 38, n=20
# Excerpt: Tumor progression (FIG. 11, Panel A) and immune response (FIG. 11, Panel B) was compared to untreated tumor control mice (n=20).
# [3] = system: HPV-16 transformed tumor cells; assay: Adjunctive therapy, survival (Kaplan-Meier) (Example 11); format: in vivo, C57BL/6 mice; conditions: two therapeutic cycles; Kaplan-Meier estimates; n=20
# Procedure: The effect of adjunctive therapy on survival was also evaluated in C57BL/6 mice inoculated with 10^5 HPV-16 transformed tumor cells as described in Example 10. A second therapeutic cycle was administered in which animals received CTX (30 mg/kg) on Day 46 and 50 (n=20), immunization with E749-57 HPV peptide and dsRNA (25 μg/Day) in bilateral inguinal lymph nodes on Day 52, 56, 65, and 69 (n=20), or were treated with a combination of CTX and immunotherapy (n=20). Kaplan-Meier (product-limit) estimates of the survival function were obtained for each of the four conditions (Control, CTX Only, Immunotherapy Only and CTX/Immunotherapy Combined), as shown in FIG. 12. Log-Rank tests were used to compare the four survival curves.
# [4] = system: HPV-16 transformed tumor cells; assay: Adjuvant efficacy: immunotherapy after primary tumor removal (Example 13); format: in vivo, C57BL/6 mice
# Procedure: A separate cohort is left untreated and tumors are removed at day 20 using surgery or irradiated using conventional radiotherapy. […] Additional control arms are treated with CTX, radiotherapy or surgery but not immunized.
# [5] = system: HPV-16 transformed tumor cells; assay: Neoadjuvant efficacy: immunotherapy prior to primary tumor treatment (Example 14); format: in vivo, C57BL/6 mice
# Procedure: Then mice are treated with CTX (100 mg/kg) starting on day 30 or by radiotherapy, every other day until the animals reach complete remission (FIG. 15). A separate cohort has the tumor removed on day 30 but no treatment with CTX. The animals are then observed for tumor relapse.
# [6] = system: HPV-16 transformed tumor cells; assay: Consolidation therapy: immunotherapy post chemotherapy (Example 15); format: in vivo, C57BL/6 mice; conditions: CTX 100 or 30 mg/kg on days 14 and 16
# Procedure: The animals are rested for 7 days until the number of lymphocytes in the blood reaches normal levels. At that point, all animals show reduced disease or complete remission relative to pre-treatment stage. […] Additional control arms are treated with CTX or radiotherapy but not immunized.
# [7] = system: CD4+/CD25+/FoxP3+ T regulatory cells; conditions: intraperitoneal 100 mg/kg; mice bearing HPV-16 transformed tumors
# [8] = system: HPV-16 transformed tumor cells; assay: Adjunctive therapy: immunotherapy accompanying chemotherapy (Example 16); conditions: CTX 100 or 30 mg/kg on days 14 and 16
# Procedure: C57BL/6 mice are inoculated subcutaneously with 10^5 HPV-16 transformed tumor cells on Day 0, and treated with CTX (100 or 30 mg/kg) on days 14 and 16 or treated by radiotherapy. […] Additional control arms are treated with CTX but not immunized.
structure (smiles),measurement,setting,value
O=P1(N(CCCl)CCCl)NCCCO1 (centres unmarked) [cyclophosphamide],levels of T-regulatory cells (CD25+ Fox P3+ within total CD4+) in spleen,[1],significantly reduced levels
same,tumor regression compared to untreated tumor controls,[2],did not significantly induce tumor regression
same,median survival time,[3],68 days
same,remission after primary treatment,[4]; CTX 100 mg/kg from day 14 every other day,attain complete remission
same,relapse without follow up immunotherapy,[4]; after complete remission,relapse in a significant number
same,remission in unimmunized animals,[5]; CTX 100 mg/kg from day 30 every other day,attain partial or complete remission
same,relapse in unimmunized animals,"[5]; after CTX, radiotherapy or surgery",relapse in a significant number
same,remission after treatment,[6],attain partial remission or complete remission within 10 days after treatment
same,level of T-regs in spleen,[7],reduced
same,level of T-regs in the tumor,[7],reduced
same,remission after CTX treatment,[8],attain partial remission or complete remission within 20 days after CTX treatment
